One series addresses T1, ADORA3 receptor (Homo sapiens, UniProt P0DMS8).
T1 sequence (P0DMS8 1-318): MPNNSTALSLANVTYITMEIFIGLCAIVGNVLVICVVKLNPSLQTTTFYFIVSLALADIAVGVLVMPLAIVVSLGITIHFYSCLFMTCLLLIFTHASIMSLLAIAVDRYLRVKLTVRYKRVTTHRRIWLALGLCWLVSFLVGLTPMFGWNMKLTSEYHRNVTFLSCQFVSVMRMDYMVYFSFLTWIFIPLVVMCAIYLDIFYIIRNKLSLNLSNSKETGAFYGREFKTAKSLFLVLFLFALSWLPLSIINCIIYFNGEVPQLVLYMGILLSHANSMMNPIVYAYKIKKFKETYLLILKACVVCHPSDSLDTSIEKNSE
The series can be described thus: Agonistic effect on adenosine A3 receptor by FLIPR assay (calcium flux assay). The format is cell-based. To be noted: agonist mode. The protocol: Example 27: Agonistic Effect of Compound on Adenosine A3 Receptor by FLIPR Assay (Calcium Flux Assay)
First Day: Cell Inoculation
• 1) With regard to ADORA3 receptor, cultured cells were used for inoculation: the culture medium was aspirated and the cells were washed twice with 10 mL of DPBS. 2 mL of 0.05% EDTA-trypsin was added and the cells were incubated at 37° C. for 1 minute. Then 10 mL of the culture medium was added to stop the digestion and the cell suspension was transferred to a 50-mL tapered tube. • 2) The 50-mL tapered tube containing the various cells was centrifuged at 300 g for 5 minutes. • 3) A supernatant was aspirated and no cells should be aspirated. • 4) The cell precipitate was resuspended in 6-8 mL of the culture medium, and then 0.5 mL of the cells were taken out for cell counting by using a Vi-cell XR cell viability analyzer. • 5) The cell suspension was diluted to 1×10^6 cells/mL (20 μL of 20,000 cells per well) in the culture medium and the cells were inoculated into a cell plate (384-well Poly-D-lysine protein-coated plate, Greiner-781946). • 6) The plate was placed in a 37° C./5% CO2 incubator for 16-20 hours. Second Day: • 1) Preparation of 2×Fluo-4 Direct™ uptaking dye • a. Preparation of probenecid solution • 1 mL of FLIPR assay buffer was added to 77 mg of probenecid (provided by Fluo-4 Direct™ calcium assay kit) to be prepared into 250 mM of a probenecid solution. The fresh probenecid solution was used daily. • b. 2×(8 μM) Fluo-4 Direct™ loading dye (per 10 mL)
A vial of the Fluo-4 Direct™ crystal was thawed and then 10 mL of the FLTPR analytical buffer was added to the vial. Then 0.2 mL of 250 mM of a probe solution was added to every 10 mL Fluo-4 Direct™ crystal to a final assay concentration of 2.5 mM. The solution was vortexed and stood for >5 min at a dark place. 2×Fluo-4 Direct™ uptaking dye was freshly prepared daily. • 2) Compound preparation • a. Preparation of compound plate: all reference and test compounds were serially diluted 4-fold in 10 points by using an Echo liquid processor and then 900 nL of the diluted compounds were transferred to a compound plate. • b. 30 μL FLIPR analytical buffer was added to the compound plate and the plate was centrifuged at 300 g for 1 minute. • 3) FLIPR analysis • a. With regard to ADORA3 receptor: firstly, the cell plate was taken out from a culture box. The culture medium was then aspirated and 20 μL of the FLIPR analytical buffer was added. The cell plate was placed in an incubator for 45 minutes and at a room temperature for 15 minutes. • b. To run an experimental solution on […], 10 μL of the FLIPR analytical buffer was transferred from the compound plate to a cell plate, and then the fluorescent signal was read. Then 10 μL of a compound solution was transferred from the compound plate to the cell plate and the fluorescence signal was read. “Max−min” was calculated from Reader 91 to an allowed maximum value. • c. With regard to agonist: activation %=(RLU−LC)/(HC−LC)*100, • wherein RLU=relative light unit, allowed maximum signal was 91; HC=average signal of high concentration agonist; and LC=mean signal of DMSO well. • d. Data were fitted to a model “log (agonist) versus response-variable slope” by using GraphPad Prism 5 to determine an EC50 value. • e. […] 2. Test Result
On the technique in general: Calcium flux is commonly read through the fluorescence of an indicator in the cells.

For series [1], the target named is T2, ADORA3 receptor (CHO cells stably expressing ADORA3 receptor) (Homo sapiens, UniProt P0DMS8).
T2 construct: expressed in transfected cells
T2 sequence (P0DMS8 1-318): T1 sequence (P0DMS8 1-318)
The experiment in a line: Effect of compound on intracellular cAMP level by adenosine A3 receptor agonism. The format is cell-based. To be noted: forskolin-stimulated. On the procedure:
Example 26: Test the Effect of Compound on Intracellular cAMP Level by Adenosine A3 Receptor Agonism
• 1) 1×HBSS with Ca2+ and Mg2+ (14 mL), 1 M HEPES (75 μL), a 7.5% (w/v) BSA stabilizer (pH 7.4, 200 μL), and 20 mM rolipram (7.5 μL) were respectively prepared as cAMP assay buffer. • 2) Preparation of compound source plate • a. […] A 10 mM stock solution was subjected to a 3-fold serial dilution by 100% (v/v) DMSO to prepare 10 doses of the test substance. • c. 1 mM of Forskolin was prepared by 100% (v/v) DMSO. • 3) Preparation of test plate • a. Prior to the assay, CHO cells stably expressing ADORA3 receptor were harvested and the cells were counted by using a Countess cell counter. […] The cells were seeded at a density of 2,000 cells/well in a 384-well plate. • 4) 10 nL/well of the serially diluted compound and 10 nL/well of 1 mM of forskolin were transferred to each well with ADORA3 receptor expressing cells by using Echo550. • 5) A cell plate was centrifuged at 1,000 rpm for 1 minute and then stirred at 600 rpm for 2 minutes. The plate was incubated at 37° C. • 6) An Eu-cAMP tracer working solution and an Ulight-anti-cAMP working solution were prepared according to the following table.
• 7) 5 μl/well of the Eu-cAMP tracer working solution and 5 μl/well of the Ulight-anti-cAMP working solution were added to each well of the plate. […] 2. Data Analysis • 1) An activation percentage was calculated by using the following formula:
[formula] • % Activation: activation percentage • Ratiocpd: ratio of emissivity of test compound • RatioLow control: ratio of low emissivity • RatioHigh control: ratio of high emissivity • 2) EC50 was calculated by an XLfit using the Hill equation to fit the activity percentage and a log of a compound concentration. 3. Test Result
(In general: Changes in cAMP serve as a functional read-out for many G protein-coupled receptors.)

The nature of series [2]: Pharmacokinetic test of compound in SD rat. The format is in vivo. Particulars: SD rats, intragastric administration (IG), cassette dosing. On the procedure:
Example 28: Pharmacokinetic Test of Compound in SD Rat
The animal species used in this experiment were SD rats. There were 3 animals per group. The rats were dosed in cassette format, i.e., multiple (1-6) different compounds were dosed simultaneously to the same group of the SD rats. The vehicle used for the drug was 5% DMSO+5% Solutl+90% ([…] methylcellulose M450), and the administration route was intragastric administration (IG).

The structures appear in SMILES notation.

As usually defined, the EC50 is the midpoint of the concentration-response curve.

Take `CCNC(=O)[C@H]1O[C@@H](n2cnc3c(NC)nc(-c4cccnc4)nc32)[C@H](O)[C@@H]1O` [compound 42, (2S,3S,4R,5R)-N-ethyl-3,4-dihydroxyl-5-(6-(methylamino)-2-(pyridin-3-yl)-9H-purin-9-yl)-tetrahydrofuran-2-formamide]: the EC50 on ADORA3 receptor stood at 12.7 nM.
Regarding `CCNC(=O)[C@H]1O[C@@H](n2cnc3c(NC)nc(-c4cncc(OC)c4)nc32)[C@H](O)[C@@H]1O` [compound 73, (2S,3S,4R,5R)-N-ethyl-3,4-dihydroxyl-5-(2-(5-methoxypyridin-3-yl)-6-(methylamino)-9H-purin-9-yl)tetrahydrofuran-2-carboxamide], at ADORA3 receptor, the EC50 worked out at 29.6 nM.
As for `CNC(=O)[C@H]1O[C@@H](n2cnc3c(NCc4cc(Cl)ccn4)nc(-c4cncc(OC)c4)nc32)[C@H](O)[C@@H]1O` [compound 185, (2S,3S,4R,5R)-5-(6-((4-chloropyridin-2-yl)methylamino)-2-(5-methoxypyridin-3-yl)-9H-purin-9-yl)-3,4-dihydroxyl-N-methyl-tetrahydrofuran-2-formamide], the EC50 in series [1] was less than 0.51 nM. In series [2], the “AUC_D” value stood at 589.63 kg·ng·h/mL/mg.
For `CNC(=O)[C@H]1O[C@@H](n2cnc3c(NCc4ccccc4)nc(-c4cncc(OC)c4)nc32)[C@H](O)[C@@H]1O` [compound 187, (2S,3S,4R,5R)-5-(6-(benzylamino)-2-(5-methoxypyridin-3-yl)-9H-purin-9-yl)-3,4-dihydroxyl-N-methyl-tetrahydrofuran-2-formamide], in that order: 14.5 nM and 1269.78 kg·ng·h/mL/mg.
On to `CNC(=O)[C@H]1O[C@@H](n2cnc3c(NCc4cccc(Cl)n4)nc(-c4cncc(OC)c4)nc32)[C@H](O)[C@@H]1O` [compound 230, (2S,3S,4R,5R)-5-(6-(((6-chloropyridin-2-yl)methyl)amino)-2-(5-methoxypyridin-3-ly)-9H-purin-9-yl)-3,4-dihydroxyl-N-methyltetrahydrofuran-2-carboxamide], for which it took 8.68 nM to reach a half-maximal effect in series [1] (EC50). In series [2], the “AUC_D” value turned out to be 212.91 kg·ng·h/mL/mg.
For `[2H]C([2H])([2H])NC(=O)[C@H]1O[C@@H](n2cnc3c(NCc4cc(Cl)ccc4F)nc(-c4cncc(Cl)c4)nc32)[C@H](O)[C@@H]1O` [compound 245, (2S,3S,4R,5R)-5-(6-(5-chloro-2-fluorobenzylamino)-2-(5-chloropyridin-3-yl)-9H-purin-9-yl)-3,4-dihydroxyl-N-((methyl-d3))-tetrahydrofuran-2-carboxamide], in that order: 0.28 nM and 1182.41 kg·ng·h/mL/mg.
`[2H]C([2H])([2H])NC(=O)[C@H]1O[C@@H](n2cnc3c(NCc4cccs4)nc(-c4cncc(Cl)c4)nc32)[C@H](O)[C@@H]1O` [compound 254, (2S,3S,4R,5R)-5-(2-(5-chloropyridin-3-yl)-6-((thiophen-2-ylmethyl)amino)-9H-purin-9-yl)-3,4-dihydroxyl-N-(methyl-d3)tetrahydrofuran-2-carboxamide]: the EC50 in series [1] is 9.51 nM. For the same compound, the “AUC_D” value in series [2] is 703.00 kg·ng·h/mL/mg.
The matching figures for `[2H]C([2H])([2H])NC(=O)[C@H]1O[C@@H](n2cnc3c(NCc4ccsc4)nc(-c4cncc(Cl)c4)nc32)[C@H](O)[C@@H]1O` [compound 255, (2S,3S,4R,5R)-5-(2-(5-chloropyridin-3-yl)-6-((thiophen-3-ylmethyl)amino)-9H-purin-9-yl)-3,4-dihydroxyl-N-(methyl-d3)tetrahydrofuran-2-carboxamide]: 8.58 nM and 406.00 kg·ng·h/mL/mg.
For `CNC(=O)[C@H]1O[C@@H](n2cnc3c(NCc4cccc(C)c4)nc(-c4cncc(C)c4)nc32)[C@H](O)[C@@H]1O` [compound 284, (2S,3S,4R,5R)-5-(6-(3-methylbenzylamino)-2-(5-methylpyridin-3-yl)-9H-purin-9-yl)-3,4-dihydroxyl-N-methyl-tetrahydrofuran-2-formamide], in that order: 2.85 nM and 8902.66 kg·ng·h/mL/mg.
For `CNC(=O)[C@H]1O[C@@H](n2cnc3c(NCc4cccc(C(F)(F)F)n4)nc(-c4cncc(F)c4)nc32)[C@H](O)[C@@H]1O` [compound 289, (2S,3S,4R,5R)-5-(2-(5-fluoropyridin-3-yl)-6-(((6-(trifluoromethyl)pyridin-2-yl)methyl)amino)-9H-purin-9-yl)-3,4-dihydroxyl-N-methyltetrahydrofuran-2-carboxamide], in that order: 6.81 nM and 106.30 kg·ng·h/mL/mg.
As to `CNC(=O)[C@H]1O[C@@H](n2cnc3c(NCc4cccc(C(F)(F)F)n4)nc(-c4cncc(Cl)c4)nc32)[C@H](O)[C@@H]1O` [compound 290, (2S,3S,4R,5R)-5-(2-(5-chloropyridin-3-yl)-6-(((6-(trifluoromethyl)pyridin-2-yl)methyl)amino)-9H-purin-9-yl)-3,4-dihydroxyl-N-methyltetrahydrofuran-2-carboxamide], in series [1], the EC50 was 12.4 nM. Also, the “AUC_D” value in series [2] was 216.77 kg·ng·h/mL/mg.
In series [1], `CNC(=O)[C@H]1O[C@@H](n2cnc3c(NCc4cc(C(F)(F)F)ccn4)nc(-c4cncc(Cl)c4)nc32)[C@H](O)[C@@H]1O` [compound 294, (2S,3S,4R,5R)-5-(2-(5-chloropyridin-3-yl)-6-(((4-(trifluoromethyl)pyridin-2-yl)methyl)amino)-9H-purin-9-yl)-3,4-dihydroxyl-N-methyltetrahydrofuran-2-carboxamide] returned an EC50 of 2.62 nM. Also, in series [2], the “AUC_D” value stood at 639.00 kg·ng·h/mL/mg.
The matching figures for `CNC(=O)[C@H]1O[C@H](n2cnc3c(NCc4cccc(C)c4)nc(-c4cncc(OC)c4)nc32)[C@H](O)[C@@H]1O` [compound 300]: 2.13 nM and 729.20 kg·ng·h/mL/mg.

The values are drawn from patent US12655174B2, “Adenosine A3 receptor agonists, preparation methods and uses thereof” (ZHEJIANG VIMGREEN PHARMACEUTICALS, LTD., priority 2020, dated 2026).
